Measured values reported in patent US20090105301A1, “9A-SUBSTITUTED AZALIDES FOR THE TREATMENT OF MALARIA” (priority 2006, published 2009).
Converted amounts (≈) assume the structure as drawn. Read-outs that look alike come from different tables or passages of the source.

Tests used:
[1] = test system: Plasmodium falciparum strain W2; experiment: In vitro screening protocol II, [3H] hypoxanthine incorporation IC50 assay, W2; format: cell-based; conditions: P. falciparum W2; for IC50: Plasmodium falciparum
Experimental: (§1) The protocol described here is a modification of the in vitro screening protocol I and the details of the methodology are given below.
(§2) Plasmodium falciparum strains 3D7A and W2.
(§3) The culture medium comprised RPMI 1640 with 25 mM HEPES, sodium bicarbonate and glutamine (GIBCO™ cat. ref.: 52400), supplemented with 10% of pooled human sera AB (Bioreclamation HMSRM-AB)) and HT supplement (0.15 mM hypoxanthine and 24 μM thymidine), (GIBCO™ cat. ref.: 41065). Human sera were decomplemented 30 min. at 56° C., aliquoted and stored frozen at −20° C. until use in this culture medium.
(§4) This culture medium (“complete medium”) was usually prepared fresh just before use and pre-warmed to 37° C.
(§5) Red blood cells AB− stock suspensions were prepared from whole blood bags coming from incomplete blood donation, provided by the Spanish Red Cross (<25 days after sampling). This “whole blood” was aliquoted and stored at 4° C.
(§6) To prepare red blood cells for the assay, the whole blood was centrifuged and washed 3 times with RPMI without serum. The upper phase, containing white blood cells was removed. The washed red blood cells were kept as a 50% suspension in complete medium. The prepared cells were stored at 4° C. and were employed in the assay at any time up to 4 days after preparation.
(§7) Test compounds were dissolved at 2 mg/ml in 100% DMSO on the day of the assay. If necessary, complete dissolution was achieved by gentle heating (the mixture was heated at a temperature <37° C.) and sonication (sonication bath).
(§8) For IC50 determinations, 10 serial 2-fold dilutions were prepared in complete medium in the presence of a constant amount of DMSO. Any obvious signs of insolubility of the stock solutions in 100% DMSO or precipitation when these solutions were diluted in assay media, were recorded.
(§9) Plasmodium falciparum strains were maintained in complete medium at 5% of hematocrit in continuous culture using a method adapted from Trager W. and Jensen J. B. (Human malaria parasites in continuous culture Science 193 (4254) (1976) 673-675) and Trager W. (Cultivation of malaria parasites Methods Cell Biol. 45 (1994) 7-26).
(§10) The parasitemia was calculated by counting the percentage of parasitized erythrocytes by optical microscopy. Thin films of blood were made every day from each culture flask, fixed with methanol and stained for 10 min. in Giemsa (Merck, cat ref.: 1.09204) at 10% in buffered water pH 7.2. The glass slides were observed and counted with an optical microscope (Nikon, Eclipse E200) equipped with a 100× immersion oil objective.
(§11) The culture was maintained at 5% of hematocrit, with a daily change of medium and was diluted when parasitemia had reached about 5%.
(§12) [^3H] Hypoxanthine incorporation assay was conducted using a method adapted from Desjardins R. E. et al. (Quantitative assessment of antimalarial activity in vitro by a semiautomated microdilution technique. Antimicrob. Agents Chemother., 16 (6) (1979) 710-718). The assays were performed in 96 wells flat bottom microplates.
(§13) 1. Serial dilutions of each test compound (25 μl of a 5× solution/well) were deposited in one row of assay microtiter plate. Compounds of this invention were tested in this assay. Chloroquine and Azithromycin were used as control compounds for each assay.
(§14) 2. […] 100 μl of the resulting suspension was distributed into each well of columns 1-11 of assay microtiter plate leading to a final volume of 125 μl per well, at 1.2% of hematocrit and 0.4% of parasitemia/well.
(§15) 3. In each plate, 2 columns were reserved for control wells: • Column 11 (comprising wells A11-H11): Positive control wells: Untreated PRBCs to compare with cultures treated with test compounds. • Column 12 (comprising wells A12-H12): • Background value wells: Uninfected RBCs—blank control to obtain the background reading from RBCs without parasites (at 1.2% of hematocrite value).
(§16) 4. The plates were incubated at 37° C. under low oxygen atmosphere. […]

[2] = test system: Plasmodium falciparum strain 3D7A; experiment: In vitro screening protocol II, [3H] hypoxanthine incorporation IC50 assay, 3D7A; format: cell-based; conditions: P. falciparum 3D7A; for IC50: Plasmodium falciparum
Experimental: as §1, §2, §3, §4, §5, §6, §7, §8, §9, §10, §11, §12, §13, §14, §15, §16

[3] = test system: P. falciparum D6 (CDC/Sierra Leone I, D-6); experiment: In vitro screening protocol I, [3H]-hypoxanthine incorporation, D6; format: cell-based, Plasmodium falciparum; conditions: for IC50: Plasmodium falciparum
How it was run: (§17)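 Asexual blood-stage P. falciparum was cultured in human A+ erythrocytes at 37 °C under 5% CO2/5% O2, and growth was measured by [3H]-hypoxanthine incorporation over 72 h total. TM91C235 was prescreened at 25,000, 2,500 and 25 ng/ml in folate-free medium. D-6 and W-2 IC50s came from 11-point two-fold dilutions by logistic fit.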

[4] = test system: P. falciparum W2 (CDC/Indochina III, W-2); experiment: In vitro screening protocol I, [3H]-hypoxanthine incorporation, W2; format: cell-based, Plasmodium falciparum; conditions: for IC50: Plasmodium falciparum
How it was run: as §17

P. falciparum TM91C235 = experiment: In vitro screening protocol I, [3H]-hypoxanthine incorporation, TM91C235; format: cell-based, Plasmodium falciparum; conditions: for IC50: Plasmodium falciparum, read-out: IC50 TM91C235
[5] = In vitro screening protocol I, P. falciparum D6, read-out: IC50 D6
[6] = In vitro screening protocol I, P. falciparum W2, read-out: IC50 W2
[7] = In vitro screening protocol I, P. falciparum TM91C235

9a-(3-{[(4-Nitrophenyl)acetyl]amino}propyl)-9-deoxo-9-dihydro-9a-aza-9a-homoerythromycin A Formiate Salt [Example 64]
IC50 W2 [1]: C (200 < X ≦ 1000) | IC50 3D7A [2]: D (1000 < X ≦ 2500)

CC[C@H]1OC(=O)[C@H](C)[C@@H](O[C@H]2C[C@@](C)(OC)[C@@H](O)[C@H](C)O2)[C@H](C)[C@@H](O[C@@H]2O[C@H](C)C[C@H](N(C)C)[C@H]2O)[C@](C)(O)C[C@@H](C)CN(CCC(=O)NCCCCc2ccccc2)[C@H](C)[C@@H](O)[C@]1(C)O [Example 41]
IC50 [3, 5]: 0.1 to 0.2 µg/mL (≈ 0.107 to 0.213 µM) | IC50 [4, 6]: < 0.1 µg/mL | IC50 (P. falciparum TM91C235; [7]): < 0.1 µg/mL

CC[C@H]1OC(=O)[C@H](C)[C@@H](O[C@H]2C[C@@](C)(OC)[C@@H](O)[C@H](C)O2)[C@H](C)[C@@H](O[C@@H]2O[C@H](C)C[C@H](N(C)C)[C@H]2O)[C@](C)(O)C[C@@H](C)CN(CCC(=O)N[C@@H](C)c2cccc3ccccc23)[C@H](C)[C@@H](O)[C@]1(C)O [Example 42]
IC50 [3, 5]: 0.1 to 0.2 µg/mL (≈ 0.104 to 0.208 µM) | IC50 [4, 6]: < 0.1 µg/mL | IC50 (P. falciparum TM91C235; [7]): < 0.1 µg/mL

CC[C@H]1OC(=O)[C@H](C)[C@@H](O[C@H]2C[C@@](C)(OC)[C@@H](O)[C@H](C)O2)[C@H](C)[C@@H](O[C@@H]2O[C@H](C)C[C@H](N(C)C)[C@H]2O)[C@](C)(O)C[C@@H](C)CN(CCC(=O)NCc2ccc3ccccc3c2)[C@H](C)[C@@H](O)[C@]1(C)O [Example 43]
IC50 [3, 5]: 0.1 to 0.2 µg/mL (≈ 0.106 to 0.211 µM) | IC50 [4, 6]: < 0.1 µg/mL | IC50 (P. falciparum TM91C235; [7]): < 0.1 µg/mL

CC[C@H]1OC(=O)[C@H](C)[C@@H](O[C@H]2C[C@@](C)(OC)[C@@H](O)[C@H](C)O2)[C@H](C)[C@@H](O[C@@H]2O[C@H](C)C[C@H](N(C)C)[C@H]2O)[C@](C)(O)C[C@@H](C)CN(CCCNC(=O)CCc2ccccc2)[C@H](C)[C@@H](O)[C@]1(C)O [Example 46, 9a-{3-[(3-Phenylpropanoyl)amino]propyl}-9a-aza-9-deoxo-9-dihydro-9a-homoerythromycin A]
IC50 D6 ([3]; In vitro screening protocol I, P. falciparum D6): C (200 < X ≦ 1000) | IC50 W2 ([4]; In vitro screening protocol I, P. falciparum W2): C (200 < X ≦ 1000) | IC50 TM91C235 (P. falciparum TM91C235; [7]): C (200 < X ≦ 1000)

CC(=O)O.CC(=O)O.CC[C@H]1OC(=O)[C@H](C)[C@@H](O[C@H]2C[C@@](C)(OC)[C@@H](O)[C@H](C)O2)[C@H](C)[C@@H](O[C@@H]2O[C@H](C)C[C@H](N(C)C)[C@H]2O)[C@](C)(O)C[C@@H](C)CN(CCCNC(=O)CCc2ccccc2)[C@H](C)[C@@H](O)[C@]1(C)O [Example 47, 9a-{3-[(3-Phenylpropanoyl)amino]propyl}-9a-aza-9-deoxo-9-dihydro-9a-homoerythromycin A Diacetate Salt]
IC50 W2 [1]: D (1000 < X ≦ 2500) | IC50 3D7A [2]: D (1000 < X ≦ 2500)

CC[C@H]1OC(=O)[C@H](C)[C@@H](O[C@H]2C[C@@](C)(OC)[C@@H](O)[C@H](C)O2)[C@H](C)[C@@H](O[C@@H]2O[C@H](C)C[C@H](N(C)C)[C@H]2O)[C@](C)(O)C[C@@H](C)CN(CCCNCc2ccccc2)[C@H](C)[C@@H](O)[C@]1(C)O [Example 52, 9a-{3-[(Phenylmethyl)amino]propyl}-9-deoxo-9-dihydro-9a-aza-9a-homoerythromycin A]
IC50 ([3]; D6, read-out: IC50 D6): 0.2 to 1 µg/mL (≈ 0.227 to 1.13 µM) | IC50 ([4]; W2, read-out: IC50 W2): < 0.1 µg/mL | IC50 (P. falciparum TM91C235): < 0.1 µg/mL

CC[C@H]1OC(=O)[C@H](C)[C@@H](O[C@H]2C[C@@](C)(OC)[C@@H](O)[C@H](C)O2)[C@H](C)[C@@H](O[C@@H]2O[C@H](C)C[C@H](N(C)C)[C@H]2O)[C@](C)(O)C[C@@H](C)CN(CCCNCc2ccc3ccccc3c2)[C@H](C)[C@@H](O)[C@]1(C)O [Example 54, 9a-{3-[(Naphtalen-2-yl-methyl)amino]propyl}-9-deoxo-9-dihydro-9a-aza-9a-homoerythromycin A]
IC50 [1]: < 0.1 µg/mL | IC50 [2]: 0.1 to 0.2 µg/mL (≈ 0.107 to 0.215 µM)

CC[C@H]1OC(=O)[C@H](C)[C@@H](O[C@H]2C[C@@](C)(OC)[C@@H](O)[C@H](C)O2)[C@H](C)[C@@H](O[C@@H]2O[C@H](C)C[C@H](N(C)C)[C@H]2O)[C@](C)(O)C[C@@H](C)CN(CCCNCC2CCNc3ccccc32)[C@H](C)[C@@H](O)[C@]1(C)O (some centres unmarked) [Example 55, 9a-{3-[(1,2,3,4-tetrahydro-quinolin-4-yl-methyl)amino]propyl}-9-deoxo-9-dihydro-9a-aza-9a-homoerythromycin A]
IC50 [1]: < 0.1 µg/mL | IC50 [2]: 0.2 to 1 µg/mL (≈ 0.213 to 1.07 µM)

CC[C@H]1OC(=O)[C@H](C)[C@@H](O)[C@H](C)[C@@H](O)[C@](C)(O)C[C@@H](C)CN(CCCNc2ccnc3cc(Cl)ccc23)[C@H](C)[C@@H](O)[C@]1(C)O [Example 56]
IC50 [1]: 0.1 to 0.2 µg/mL (≈ 0.157 to 0.313 µM) | IC50 [2]: < 0.1 µg/mL

CCC1OC(=O)C(C)C(OC2CC(C)(OC)C(O)C(C)O2)C(C)C(OC2OC(C)CC(N(C)C)C2O)C(C)(O)CC(C)CN(CCCNC(=O)Cc2ccc(OC)cc2)C(C)C(O)C1(C)O.O=CO (centres unmarked) [Example 58, 9a-[3-({[4-(Methyloxy)phenyl]acetyl}amino)propyl]-9-deoxo-9-dihydro-9a-aza-9a-homoerythromycin A Formiate Salt]
IC50 W2 [1]: C (200 < X ≦ 1000) | IC50 3D7A [2]: G (3500 < X ≦ 5000)

CCC1OC(=O)C(C)C(OC2CC(C)(OC)C(O)C(C)O2)C(C)C(OC2OC(C)CC(N(C)C)C2O)C(C)(O)CC(C)CN(CCCNC(=O)c2cc(F)c(F)c(OC)c2F)C(C)C(O)C1(C)O.O=CO (centres unmarked) [Example 59, 9a-[3-({[2,4,5-Trifluoro-3-(methyloxy)phenyl]carbonyl}amino)propyl]-9-deoxo-9-dihydro-9a-aza-9a-homoerythromycin A Formiate Salt]
IC50 W2 [1]: B (100 < X ≦ 200) | IC50 3D7A [2]: D (1000 < X ≦ 2500)

CC[C@H]1OC(=O)[C@H](C)[C@@H](O[C@H]2C[C@@](C)(OC)[C@@H](O)[C@H](C)O2)[C@H](C)[C@@H](O[C@@H]2O[C@H](C)C[C@H](N(C)C)[C@H]2O)[C@](C)(O)C[C@@H](C)CN(CCCNC(=O)C(Cc2ccc(F)cc2)NC(C)=O)[C@H](C)[C@@H](O)[C@]1(C)O.O=CO (some centres unmarked) [Example 60, 9a-{3-[(N-Acetyl-4-fluorophenylalanyl)amino]propyl}-9-deoxo-9-dihydro-9a-aza-9a-homoerythromycin A Formiate Salt]
IC50 W2 [1]: D (1000 < X ≦ 2500) | IC50 3D7A [2]: H (5000 < X ≦ 10000)

CCC1OC(=O)C(C)C(OC2CC(C)(OC)C(O)C(C)O2)C(C)C(OC2OC(C)CC(N(C)C)C2O)C(C)(O)CC(C)CN(CCCNC(=O)Cc2cccc(Cl)c2)C(C)C(O)C1(C)O.O=CO (centres unmarked) [Example 62, 9a-(3-{[(3-Chlorophenyl)acetyl]amino}propyl)-9-deoxo-9-dihydro-9a-aza-9a-homoerythromycin A Formiate Salt]
IC50 W2 [1]: C (200 < X ≦ 1000) | IC50 3D7A [2]: C (200 < X ≦ 1000)

CCC1OC(=O)C(C)C(OC2CC(C)(OC)C(O)C(C)O2)C(C)C(OC2OC(C)CC(N(C)C)C2O)C(C)(O)CC(C)CN(CCCNC(=O)Cc2ccc(Cl)cc2)C(C)C(O)C1(C)O.O=CO (centres unmarked) [Example 63, 9a-(3-{[(4-Chlorophenyl)acetyl]amino}propyl)-9-deoxo-9-dihydro-9a-aza-9a-homoerythromycin A Formiate Salt]
IC50 W2 [1]: C (200 < X ≦ 1000) | IC50 3D7A [2]: C (200 < X ≦ 1000)
